The text below walks through data of patent publication US20240209001A1, “HETEROCYCLIC DERIVATIVES AS JANUS KINASE INHIBITORS” (CHIESI FARMACEUTICI S.P. A., priority 2021, published 2024).

One assay concerns the target JAK 1 (Homo sapiens (Human), UniProt P23458). The assay can be described thus: Biochemical potency on JAK1, TR-FRET LANCE Ultra kinase assay (compounds 1-92). Particulars: ATP at Km, read-out: JAK1 inhibitory activity (pIC50 class) (converted). As to the method: (§1) Biochemical Potency on JAK1, JAK2, JAK3 and Tyk2 Assay Principle The objective of this study was to assess the capability of compounds to inhibit all 4 JAK isoforms activity in a cell-free environment. Assay for JAK 1, JAK 2, JAK 3 and TYK2 were performed by Time-resolved fluorescence resonance energy transfer (TR-FRET) technology. It consists in the interaction of two labelled binding partners detected by the energy transfer from an excited donor to an acceptor dye and measurement of light emission by the acceptor dye. LANCE Ultra kinase assay was used. In presence of JAK 1, JAK 2, JAK 3 and TYK2 kinases and ATP (corresponding to Km), the ULight peptide substrate (LANCE Ulight-JAK-1 ([…]) Peptide, Perkin Elmer, TRF0121) is phosphorylated. It is then captured by Eu-anti-phospho-substrate antibody (LANCE Eu-W1024 Anti-phosphotyrosine (PT66), Perkin Elmer, AD0069), which bring the Eu-chelate donor and ULight acceptor dyes into close proximity. Upon excitation at 320 nm, the Eu-chelate transfers its energy to the ULight dye, resulting in a fluorescent light emission at 665 nm. Compound Testing Serial dilutions of compounds in pure DMSO are prepared from 10 mM DMSO stock solutions. Compounds were tested in 384-well plate for 11 consecutive 5-fold dilutions starting from 20 μM highest concentration (20 μM-[…]). 200 nL of compound were transferred from mother plate to test plate by using Mosquito (TTP labtech). Assay was performed in 384-well Perkin Elmer test plate in 20 μL assay volume (kinase reaction) and 40 μL total volume (stopping reagent and antibody detection reagents). In 10 μL of substrate solution (peptide+ATP) 30/50/20/10 nM of peptide and 20/0.7/0.2/12 μM of ATP were added for JAK 1, JAK 2, JAK 3 and TYK2 respectively. 10 μL of enzyme solution was added to kinase reaction at these concentrations: 0.15/0.083/0.025/0.144 ng/μL of JAK 1, JAK 2, JAK 3 and TYK2 respectively. After shaking and 1.5 h of incubation at r.t., 20 μL of Stop (10 μL EDTA) and Detection mixture (10 μL Europium-anti-phospho antibody, final: 0.5 nM) were added. Reading was performed after 1 h of incubation on a EnVision 2104 reader (Perkin Elmer). Calculation of IC50 data, curves and QC analysis was performed by using Excel tool and GraphPadPrism software, v9. Briefly, individual concentration-effect curves are generated by plotting the logarithm of the tested concentration of tested compounds (X) vs. corresponding percent inhibition values (Y) using least squares (ordinary) fit. Best fit IC50 values are calculated using Log(inhibitor) vs. normalized response-Variable slope equation, where Y=100/(1+10^((Log IC50-X)*HillSlope)). QC criteria parameters (Z', S:B, R2, HillSlope) were checked for every IC50 curve. Calculation of IC50 data, curves and QC analysis were made using Excel tools and GraphPadPrism software. QC criteria parameters: Z'≥0.5, Hill Slope range 0.5 to 5, S:B>2.
In general terms: Time-resolved FRET reads energy transfer from a long-lived donor to a nearby acceptor.

A further assay addresses JAK 2 (Homo sapiens (Human), UniProt O60674). The assay can be described thus: Biochemical potency on JAK2, TR-FRET LANCE Ultra kinase assay (compounds 1-92). Particulars: ATP at Km, read-out: JAK2 inhibitory activity (pIC50 class) (converted). As to the method:
as §1

The target in a further assay is TYK2 (Homo sapiens (Human), UniProt P29597). The assay can be described thus: Biochemical potency on Tyk2, TR-FRET LANCE Ultra kinase assay (compounds 1-92). Particulars: ATP at Km, read-out: Tyk2 inhibitory activity (pIC50 class) (converted). As to the method: as §1
A further assay addresses JAK 3 (Homo sapiens (Human), UniProt P52333). Briefly: Biochemical potency on JAK3, TR-FRET LANCE Ultra kinase assay (compounds 1-92). To be noted: ATP at Km, read-out: JAK3 inhibitory activity (pIC50 class) (converted). How it is done: as §1

JAK 3, sequence (P52333 whole entry): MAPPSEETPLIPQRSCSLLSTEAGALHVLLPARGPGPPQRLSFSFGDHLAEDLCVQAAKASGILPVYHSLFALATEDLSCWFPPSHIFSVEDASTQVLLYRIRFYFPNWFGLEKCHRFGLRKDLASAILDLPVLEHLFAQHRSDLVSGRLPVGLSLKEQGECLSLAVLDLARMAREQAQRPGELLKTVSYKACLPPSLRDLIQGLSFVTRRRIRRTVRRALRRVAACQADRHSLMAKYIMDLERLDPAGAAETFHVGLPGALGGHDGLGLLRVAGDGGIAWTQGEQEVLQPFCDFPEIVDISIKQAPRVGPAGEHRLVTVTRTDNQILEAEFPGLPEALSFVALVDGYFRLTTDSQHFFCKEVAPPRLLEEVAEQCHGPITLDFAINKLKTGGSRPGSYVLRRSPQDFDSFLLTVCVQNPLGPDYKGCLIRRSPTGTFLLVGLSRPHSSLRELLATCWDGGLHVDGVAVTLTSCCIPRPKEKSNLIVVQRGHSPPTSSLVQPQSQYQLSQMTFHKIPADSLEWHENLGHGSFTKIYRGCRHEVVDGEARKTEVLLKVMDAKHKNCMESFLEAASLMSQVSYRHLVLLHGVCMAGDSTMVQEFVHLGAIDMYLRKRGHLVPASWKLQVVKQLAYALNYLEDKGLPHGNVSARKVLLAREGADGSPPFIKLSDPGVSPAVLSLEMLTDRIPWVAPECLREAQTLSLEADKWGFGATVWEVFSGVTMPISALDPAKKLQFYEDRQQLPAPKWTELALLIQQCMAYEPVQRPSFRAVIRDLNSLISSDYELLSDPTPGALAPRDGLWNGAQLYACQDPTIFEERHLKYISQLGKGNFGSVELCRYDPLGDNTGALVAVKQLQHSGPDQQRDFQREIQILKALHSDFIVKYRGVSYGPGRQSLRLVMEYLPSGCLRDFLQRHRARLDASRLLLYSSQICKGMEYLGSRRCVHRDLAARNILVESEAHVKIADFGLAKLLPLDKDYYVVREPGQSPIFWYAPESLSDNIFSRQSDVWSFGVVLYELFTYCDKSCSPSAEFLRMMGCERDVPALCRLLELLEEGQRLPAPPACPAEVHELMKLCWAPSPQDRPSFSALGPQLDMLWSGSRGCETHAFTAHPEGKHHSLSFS
JAK 2, sequence (O60674 whole entry): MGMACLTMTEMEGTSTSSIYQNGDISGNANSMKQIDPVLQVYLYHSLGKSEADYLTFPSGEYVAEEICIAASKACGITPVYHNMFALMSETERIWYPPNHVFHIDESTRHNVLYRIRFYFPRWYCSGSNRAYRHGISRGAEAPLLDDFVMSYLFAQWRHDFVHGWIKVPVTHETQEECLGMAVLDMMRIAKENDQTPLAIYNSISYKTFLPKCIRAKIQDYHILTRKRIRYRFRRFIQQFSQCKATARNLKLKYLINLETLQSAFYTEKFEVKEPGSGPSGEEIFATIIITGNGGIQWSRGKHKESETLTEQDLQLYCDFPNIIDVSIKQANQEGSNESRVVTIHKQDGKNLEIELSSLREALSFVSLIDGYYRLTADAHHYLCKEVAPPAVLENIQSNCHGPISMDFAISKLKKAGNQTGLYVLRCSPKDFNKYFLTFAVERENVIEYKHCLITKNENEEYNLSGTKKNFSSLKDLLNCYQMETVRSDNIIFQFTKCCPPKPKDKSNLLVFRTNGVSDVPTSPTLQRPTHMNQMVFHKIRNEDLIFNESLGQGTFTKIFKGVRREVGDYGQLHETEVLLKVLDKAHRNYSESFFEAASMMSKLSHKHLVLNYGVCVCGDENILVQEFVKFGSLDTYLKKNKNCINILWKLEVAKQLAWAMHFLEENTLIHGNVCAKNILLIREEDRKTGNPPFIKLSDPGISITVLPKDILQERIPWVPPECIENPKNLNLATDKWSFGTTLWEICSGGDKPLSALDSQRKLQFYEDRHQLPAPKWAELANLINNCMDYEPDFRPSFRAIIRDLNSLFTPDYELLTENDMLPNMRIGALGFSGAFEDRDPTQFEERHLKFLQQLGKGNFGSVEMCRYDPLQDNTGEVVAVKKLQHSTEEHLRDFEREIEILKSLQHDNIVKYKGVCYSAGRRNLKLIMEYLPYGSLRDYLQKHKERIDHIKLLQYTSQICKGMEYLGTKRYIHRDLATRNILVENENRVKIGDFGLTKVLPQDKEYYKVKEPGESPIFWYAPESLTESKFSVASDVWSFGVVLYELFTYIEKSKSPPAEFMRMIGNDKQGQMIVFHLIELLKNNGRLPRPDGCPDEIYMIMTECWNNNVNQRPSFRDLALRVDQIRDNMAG
JAK 1, sequence (P23458 whole entry, canonical isoform): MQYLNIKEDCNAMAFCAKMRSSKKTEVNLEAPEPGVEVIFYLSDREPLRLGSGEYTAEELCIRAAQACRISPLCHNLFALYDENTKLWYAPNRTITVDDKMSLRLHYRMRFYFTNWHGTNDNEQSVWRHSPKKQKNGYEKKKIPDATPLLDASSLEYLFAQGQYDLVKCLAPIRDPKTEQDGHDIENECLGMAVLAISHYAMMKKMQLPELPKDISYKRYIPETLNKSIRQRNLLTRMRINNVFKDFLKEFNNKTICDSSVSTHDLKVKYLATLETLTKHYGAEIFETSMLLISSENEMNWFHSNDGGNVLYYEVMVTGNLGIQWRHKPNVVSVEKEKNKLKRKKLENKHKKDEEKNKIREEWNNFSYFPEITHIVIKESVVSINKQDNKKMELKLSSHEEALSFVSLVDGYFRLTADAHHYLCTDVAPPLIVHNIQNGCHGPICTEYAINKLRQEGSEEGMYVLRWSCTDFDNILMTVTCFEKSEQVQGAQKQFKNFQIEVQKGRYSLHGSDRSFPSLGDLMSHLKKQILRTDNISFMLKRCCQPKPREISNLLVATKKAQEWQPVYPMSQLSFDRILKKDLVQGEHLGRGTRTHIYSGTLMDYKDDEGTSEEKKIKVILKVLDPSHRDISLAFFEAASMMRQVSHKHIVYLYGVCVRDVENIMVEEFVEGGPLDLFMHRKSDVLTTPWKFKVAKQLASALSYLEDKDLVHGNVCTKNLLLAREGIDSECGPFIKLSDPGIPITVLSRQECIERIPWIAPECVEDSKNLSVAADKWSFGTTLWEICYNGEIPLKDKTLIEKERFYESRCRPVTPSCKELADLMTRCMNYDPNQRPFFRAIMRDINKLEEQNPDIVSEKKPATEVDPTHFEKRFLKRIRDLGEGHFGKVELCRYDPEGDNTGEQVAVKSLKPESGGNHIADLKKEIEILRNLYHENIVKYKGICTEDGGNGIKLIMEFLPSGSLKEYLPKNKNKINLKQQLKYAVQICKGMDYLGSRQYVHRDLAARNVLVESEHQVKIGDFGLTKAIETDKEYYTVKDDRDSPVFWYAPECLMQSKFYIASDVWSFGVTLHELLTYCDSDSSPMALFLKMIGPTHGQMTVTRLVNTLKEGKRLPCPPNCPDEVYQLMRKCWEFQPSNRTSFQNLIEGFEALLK
TYK2, sequence (P29597 whole entry): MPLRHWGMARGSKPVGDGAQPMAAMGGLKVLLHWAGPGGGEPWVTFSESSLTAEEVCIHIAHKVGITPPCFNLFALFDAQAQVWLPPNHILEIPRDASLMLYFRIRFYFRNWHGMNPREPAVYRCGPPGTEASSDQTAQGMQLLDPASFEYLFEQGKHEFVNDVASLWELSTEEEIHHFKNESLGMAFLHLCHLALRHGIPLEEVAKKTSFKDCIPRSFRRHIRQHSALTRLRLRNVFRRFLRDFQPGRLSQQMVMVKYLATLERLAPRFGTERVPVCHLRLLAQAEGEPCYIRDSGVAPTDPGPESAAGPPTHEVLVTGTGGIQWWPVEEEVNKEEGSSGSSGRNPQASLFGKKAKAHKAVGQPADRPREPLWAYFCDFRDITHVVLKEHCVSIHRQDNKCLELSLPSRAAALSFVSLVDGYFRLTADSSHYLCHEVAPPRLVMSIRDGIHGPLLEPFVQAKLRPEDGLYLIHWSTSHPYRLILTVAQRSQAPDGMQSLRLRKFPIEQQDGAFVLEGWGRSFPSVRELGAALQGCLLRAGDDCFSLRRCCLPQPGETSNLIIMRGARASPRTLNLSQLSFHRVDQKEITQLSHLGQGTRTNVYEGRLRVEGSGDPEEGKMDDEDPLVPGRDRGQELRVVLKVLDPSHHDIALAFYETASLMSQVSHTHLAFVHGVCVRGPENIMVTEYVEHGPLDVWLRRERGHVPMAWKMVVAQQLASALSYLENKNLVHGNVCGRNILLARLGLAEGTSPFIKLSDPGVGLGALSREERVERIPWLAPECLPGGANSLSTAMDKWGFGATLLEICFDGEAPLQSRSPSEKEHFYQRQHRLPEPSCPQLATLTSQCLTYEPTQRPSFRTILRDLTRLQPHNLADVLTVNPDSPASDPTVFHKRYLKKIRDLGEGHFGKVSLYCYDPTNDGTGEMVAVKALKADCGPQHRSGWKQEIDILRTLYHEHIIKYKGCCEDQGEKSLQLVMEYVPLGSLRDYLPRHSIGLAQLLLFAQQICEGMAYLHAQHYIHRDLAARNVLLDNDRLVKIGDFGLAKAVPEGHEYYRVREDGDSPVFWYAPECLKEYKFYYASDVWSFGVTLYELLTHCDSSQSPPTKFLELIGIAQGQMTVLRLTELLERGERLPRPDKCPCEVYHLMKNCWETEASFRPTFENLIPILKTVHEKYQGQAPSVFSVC

On to `COc1cc(C#N)ccc1-n1nc(C)c2cnc(-c3cnn4cccnc34)cc21` [Example 15, 3-methoxy-4-(3-methyl-6-(pyrazolo[1,5-a]pyrimidin-3-yl)-1H-pyrazolo[4,3-c]pyridin-1-yl)benzonitrile], for which the IC50 at JAK 1 was 5.01 to 50.1 nM; on JAK 2, 5.01 to 50.1 nM; on TYK2, above 50.1 nM; on JAK 3, 5.01 to 50.1 nM.

For `CNc1cc(OC)c(-n2nc(C)c3cnc(-c4cnn5cccnc45)cc32)cn1` [Example 16, 4-methoxy-N-methyl-5-(3-methyl-6-(pyrazolo[1,5-a]pyrimidin-3-yl)-1H-pyrazolo[4,3-c]pyridin-1-yl)pyridin-2-amine], the IC50 on JAK 1 was 5.01 to 50.1 nM; on JAK 2, 5.01 to 50.1 nM; at TYK2, above 50.1 nM; on JAK 3, 5.01 to 50.1 nM.

With `COc1cc(N)ccc1-n1nc(C)c2cnc(-c3cnn4cccnc34)cc21` [Example 17, 3-methoxy-4-(3-methyl-6-(pyrazolo[1,5-a]pyrimidin-3-yl)-1H-pyrazolo[4,3-c]pyridin-1-yl)aniline], the IC50 on JAK 1 was 5.01 to 50.1 nM; at JAK 2, 5.01 to 50.1 nM; at TYK2, above 50.1 nM; on JAK 3, 5.01 to 50.1 nM.

On to `CNC(=O)Nc1ccc(-n2nc(C)c3cnc(-c4cnn5cccnc45)cc32)c(OC)c1` [Example 18, 1-(3-methoxy-4-(3-methyl-6-(pyrazolo[1,5-a]pyrimidin-3-yl)-1H-pyrazolo[4,3-c]pyridin-1-yl)phenyl)-3-methylurea], for which the IC50 on JAK 1 was 5.01 to 50.1 nM; on JAK 2, 5.01 to 50.1 nM; at TYK2, above 50.1 nM; at JAK 3, 5.01 to 50.1 nM.

Regarding `CNC(=O)c1ccc(-n2nc(C)c3cnc(-c4cnn5cccnc45)cc32)c(OC)c1` [Example 19, 3-methoxy-N-methyl-4-(3-methyl-6-(pyrazolo[1,5-a]pyrimidin-3-yl)-1H-pyrazolo[4,3-c]pyridin-1-yl)benzamide], the IC50 on JAK 1, on JAK 2, at TYK2 and on JAK 3 was above 50.1 nM throughout.

On to `COc1cc(C(=O)Nc2ccccc2)ccc1-n1nc(C)c2cnc(-c3cnn4cccnc34)cc21` [Example 20, 3-methoxy-4-(3-methyl-6-(pyrazolo[1,5-a]pyrimidin-3-yl)-1H-pyrazolo[4,3-c]pyridin-1-yl)-N-phenylbenzamide], for which the IC50 is 5.01 to 50.1 nM on JAK 1, 5.01 to 50.1 nM on JAK 2, above 50.1 nM on TYK2 and 5.01 to 50.1 nM at JAK 3.

Take `COc1cc(NS(C)(=O)=O)ccc1-n1nc(NCCCNC(=O)OC(C)(C)C)c2cnc(-c3cnn4cccnc34)cc21` [Example 21, tert-butyl (3-((1-(2-methoxy-4-(methylsulfonamido)phenyl)-6-(pyrazolo[1,5-a]pyrimidin-3-yl)-1H-pyrazolo[4,3-c]pyridin-3-yl)amino)propyl)carbamate]: the IC50 on JAK 1 was at most 5.01 nM; at JAK 2 it was at most 5.01 nM; on TYK2 it was 5.01 to 50.1 nM; on JAK 3, at most 5.01 nM.

For `COc1cc(NS(C)(=O)=O)ccc1-n1nc(NCCCN(C)C)c2cnc(-c3cnn4cccnc34)cc21` [Example 22, N-(4-(3-((3-(dimethylamino)propyl)amino)-6-(pyrazolo[1,5-a]pyrimidin-3-yl)-1H-pyrazolo[4,3-c]pyridin-1-yl)-3-methoxyphenyl)methanesulfonamide], the IC50 was at most 5.01 nM on JAK 1, at most 5.01 nM at JAK 2, 5.01 to 50.1 nM on TYK2 and at most 5.01 nM on JAK 3.

Consider `CNc1nn(-c2ccc(NS(C)(=O)=O)cc2OC)c2cc(-c3cnn4cccnc34)ncc12` [Example 23, N-(3-methoxy-4-(3-(methylamino)-6-(pyrazolo[1,5-a]pyrimidin-3-yl)-1H-pyrazolo[4,3-c]pyridin-1-yl)phenyl)methanesulfonamide], for which the IC50 was at most 5.01 nM at JAK 1, at most 5.01 nM on JAK 2, 5.01 to 50.1 nM on TYK2 and at most 5.01 nM at JAK 3.

Take `COc1cc(NS(C)(=O)=O)ccc1-n1nc(NCCN2CCOCC2)c2cnc(-c3cnn4cccnc34)cc21` [Example 24, N-(3-methoxy-4-(3-((2-morpholinoethyl)amino)-6-(pyrazolo[1,5-a]pyrimidin-3-yl)-1H-pyrazolo[4,3-c]pyridin-1-yl)phenyl)methanesulfonamide]: the IC50 at JAK 1 is at most 5.01 nM; at JAK 2, at most 5.01 nM; on TYK2, 5.01 to 50.1 nM; on JAK 3, at most 5.01 nM.

Take `O=S(=O)(Nc1ccc(-n2nc(NCCN3CCOCC3)c3cnc(-c4cnn5cccnc45)cc32)c(OC(F)F)c1)C1CC1` [Example 25, N-(3-(difluoromethoxy)-4-(3-((2-morpholinoethyl)amino)-6-(pyrazolo[1,5-a]pyrimidin-3-yl)-1H-pyrazolo[4,3-c]pyridin-1-yl)phenyl)cyclopropanesulfonamide]: the IC50 on JAK 1 is 5.01 to 50.1 nM; on JAK 2 it was 5.01 to 50.1 nM; on TYK2, above 50.1 nM; at JAK 3, at most 5.01 nM.

Turning to `COc1cc(NS(C)(=O)=O)ccc1-n1nc(NCCO)c2cnc(-c3cnn4cccnc34)cc21` [Example 26, N-(4-(3-((2-hydroxyethyl)amino)-6-(pyrazolo[1,5-a]pyrimidin-3-yl)-1H-pyrazolo[4,3-c]pyridin-1-yl)-3-methoxyphenyl)methanesulfonamide], the IC50 at JAK 1 is at most 5.01 nM; at JAK 2, at most 5.01 nM; on TYK2 it was 5.01 to 50.1 nM; at JAK 3, at most 5.01 nM.

`COCCN1CCC(CNc2nn(-c3ccc(NS(C)(=O)=O)cc3OC)c3cc(-c4cnn5cccnc45)ncc23)CC1` [Example 27, N-(3-methoxy-4-(3-(((1-(2-methoxyethyl)piperidin-4-yl)methyl)amino)-6-(pyrazolo[1,5-a]pyrimidin-3-yl)-1H-pyrazolo[4,3-c]pyridin-1-yl)phenyl)methanesulfonamide]: the IC50 at JAK 1 was at most 5.01 nM; at JAK 2, at most 5.01 nM; on TYK2 it was 5.01 to 50.1 nM; at JAK 3, at most 5.01 nM.

For the compound `COc1cc(NS(=O)(=O)C2CC2)cnc1-n1nc(NCCN(C)C)c2cnc(-c3cnn4cccnc34)cc21` [Example 29, N-(6-(3-((2-(dimethylamino)ethyl)amino)-6-(pyrazolo[1,5-a]pyrimidin-3-yl)-1H-pyrazolo[4,3-c]pyridin-1-yl)-5-methoxypyridin-3-yl)cyclopropanesulfonamide], the IC50 at JAK 1 was 5.01 to 50.1 nM; at JAK 2, 5.01 to 50.1 nM; on TYK2, above 50.1 nM; on JAK 3, 5.01 to 50.1 nM.

As for `COc1cc(NS(C)(=O)=O)ccc1-n1nc(NCCN2C3CCC2COC3)c2cnc(-c3cnn4cccnc34)cc21` [Example 30, N-(4-(3-((2-(3-oxa-8-azabicyclo[3.2.1]octan-8-yl)ethyl)amino)-6-(pyrazolo[1,5-a]pyrimidin-3-yl)-1H-pyrazolo[4,3-c]pyridin-1-yl)-3-methoxyphenyl)methanesulfonamide], the IC50 is at most 5.01 nM at JAK 1, at most 5.01 nM at JAK 2, 5.01 to 50.1 nM at TYK2 and at most 5.01 nM on JAK 3.

In the case of `COc1cc(NS(C)(=O)=O)ccc1-n1nc(NCCN(C)C)c2cnc(-c3cnn4cccnc34)cc21` [Example 31, N-(4-(3-((2-(dimethylamino)ethyl)amino)-6-(pyrazolo[1,5-a]pyrimidin-3-yl)-1H-pyrazolo[4,3-c]pyridin-1-yl)-3-methoxyphenyl)methanesulfonamide], the IC50 was at most 5.01 nM on JAK 1, at most 5.01 nM on JAK 2, 5.01 to 50.1 nM at TYK2 and at most 5.01 nM on JAK 3.
